Tests used:
Format in all cases: functional
NCI-H460 [1] = experiment: Antiproliferative activity against human NCI-H460 cells assessed as cell growth inhibition measured after 72 hrs by crystal violet staining based assay; conditions: NCI-H460, 72 h
NCI-H460 [2] = experiment: Induction of apoptosis in human NCI-H460 cells assessed as late apoptotic cells measured after 72 hrs by Annexin V-FITC and propidium iodide staining based flow cytometry analysis (Rvb= 6.93%)
NCI-H460 [3] = experiment: Induction of apoptosis in human NCI-H460 cells assessed as early apoptotic cells measured after 72 hrs by Annexin V-FITC and propidium iodide staining based flow cytometry analysis (Rvb= 6.61%)
HCT-116 = experiment: Antiproliferative activity against human HCT-116 cells assessed as cell growth inhibition measured after 72 hrs by crystal violet staining based assay; conditions: HCT-116, 72 h
SK-OV-3 = experiment: Antiproliferative activity against human SK-OV-3 cells assessed as cell growth inhibition measured after 72 hrs by crystal violet staining based assay; conditions: SK-OV-3, 72 h

Row | Compound | IC50 (NCI-H460 [1]) | Activity (NCI-H460 [2]) | Activity (NCI-H460 [3]) | IC50 (HCT-116) | IC50 (SK-OV-3)
1 | COc1cc(CNC(=O)CCCC/C=C/C(C)C)ccc1O [CAPSAICIN] | 30.7 µM | 7.25% | 7.17% | 40.2 µM | 22 µM
2 | COc1cccc2c1C(=O)c1c(O)c3c(c(O)c1C2=O)C[C@@](O)(C(=O)CO)C[C@@H]3O[C@H]1C[C@H](N)[C@H](O)[C@H](C)O1 [DOXORUBICIN] | 0.00429 µM | – | 7.16% | 0.0578 µM | 0.0258 µM
